Data: patent publication US10011584B2, “Polymorphic form of [5-fluoro-3-({2-[(4-fluorobenzene) sulfonyl]pyridin-3-yl}methyl)-2-methylindol-1-yl]-acetic acid” (Atopix Therapeutics Limited, priority 2014, dated 2018)

Key:
Type in all cases: physicochemical
[1] = TG-FTIR thermogravimetry; settings: 25° C. to 250° C., heating rate 10° C./min
Method: (§1) In the Examples the following conditions were used for measurements. • 1H-NMR: 1H-NMR spectra were recorded using a Bruker DPX300 spectrometer with a proton frequency of 300.13 MHz, a 30° excitation pulse, and a recycle delay of 1 s. 16 scans were accumulated. d6-DMSO was used as the solvent. • DSC: Differential scanning calorimetry was carried out with a Perkin Elmer DSC-7 instrument (closed gold sample pan under N2 atmosphere). • DVS (SPS): Sorption Measurement System SPS11-100n. The sample was placed in an Al crucible, and the sample was allowed to equilibrate at a given r.h. before starting a predefined humidity program. The used measurement program can be recognized in the corresponding figures (blue line). • FT-Raman spectroscopy: FT-Raman spectra were recorded on a Bruker RFS 100 FT-Raman system with a near infrared Nd:YAG laser operating at 1064 nm and a liquid nitrogen-cooled germanium detector. For each sample, a minimum of 64 scans with a resolution of 2 cm^−1 were accumulated. 300 mW laser power was used. The FT-Raman data are shown in the region between 3500 to 100 cm^−1. […] Sample preparation: The samples were generally measured without any special treatment other than the application of slight pressure to get a flat surface. […]
Batch 3 was analyzed by TG-FTIR in a temperature range of 25° C. to 250° C. and a heating rate of 10° C./min. […]

[2] = Thermodynamic stability of polymorphic forms (suspension equilibration of a mixture of forms, PXRD); settings: for temperature range of thermodynamic stability (in words): enantiotropic polymorphs
Method: Polymorphic Form 2 has a melting signal at 196° C. as measured by differential scanning calorimetry and is stable at temperatures up to about 60-65° C.
A mixture with similar ratios of the products of Example 4, Experiment 15 (Form 1), Example 4, Experiment 9 (form 2+x) and Example 4, Experiment 6 (Form 2+Form 3) were suspended in acetonitrile and shaken for 13 days at 22° C. to give a product designated Product P24). The solid was recovered by filter centrifugation and characterized by PXRD. […] These signals could be assigned to (i) another crystalline form or (ii) the signals could not be detected for Product P24 because the diffractogram has a lower intensity.
Thus, after 13 days at 22° C. the PXRD corresponds to that of Form 2.

[3] = Dynamic vapour sorption (DVS) with FT-Raman check pre- and post-measurement
Method: as §1
In order to examine the behaviour of Batch 1 in the presence of variable water vapour pressure, the sample was analyzed by DVS. […]

## Cc1c(Cc2cccnc2S(=O)(=O)c2ccc(F)cc2)c2cc(F)ccc2n1CC(=O)O [Batch 3, [5-fluoro-3-({2-[(4-fluorobenzene)sulfonyl]pyridin-3-yl}methyl)-2-methylindol-1-yl]-acetic acid]
[1]
  decomposition temperature: > 160 °C

## Cc1c(Cc2cccnc2S(=O)(=O)c2ccc(F)cc2)c2cc(F)ccc2n1CC(=O)O [Form 1, [5-fluoro-3-({2-[(4-fluorobenzene)sulfonyl]pyridin-3-yl}methyl)-2-methylindol-1-yl]-acetic acid]
[2]
  temperature range of thermodynamic stability (in words): thermodynamically stable at high temperatures

## Cc1c(Cc2cccnc2S(=O)(=O)c2ccc(F)cc2)c2cc(F)ccc2n1CC(=O)O [Form 2, [5-fluoro-3-({2-[(4-fluorobenzene)sulfonyl]pyridin-3-yl}methyl)-2-methylindol-1-yl]-acetic acid]
[2]; mixture of Forms 1, 2 and 3 in acetonitrile, shaken 13 days at 22° C., PXRD
  most stable form after suspension equilibration: most stable form at room temperature
[2]; upper limit of stability range of the polymorphic form
  temperature up to which the form is thermodynamically stable: 60-65 °C

## Cc1c(Cc2cccnc2S(=O)(=O)c2ccc(F)cc2)c2cc(F)ccc2n1CC(=O)O [Form 3, [5-fluoro-3-({2-[(4-fluorobenzene)sulfonyl]pyridin-3-yl}methyl)-2-methylindol-1-yl]-acetic acid]
[2]
  temperature range of thermodynamic stability (in words): stable at temperatures between the stability ranges of Forms 2 and 1

## Cc1c(Cc2cccnc2S(=O)(=O)c2ccc(F)cc2)c2cc(F)ccc2n1CC(=O)O [Batch 1, [5-fluoro-3-({2-[(4-fluorobenzene)sulfonyl]pyridin-3-yl}methyl)-2-methylindol-1-yl]-acetic acid]
[3]; FT-Raman pre- and post DVS
  phase transition of sample recovered from DVS: no phase transition
[3]; end humidity 50% r.h., scanning rate 5% r.h. per hour, cycle 50-0-95-50% r.h.
  mass change at the end of the DVS measurement versus starting material: 0.6%
